Measured values taken from ChEMBL document CHEMBL3228004, “An attempt to apply lethal synthesis to the design of chemotherapeutic agents. Fluorinated 5 beta-(hydroxyethyl)-4-methylthiazoles” (J Med Chem, 1979).
The source made the active and inactive calls. No cut-off for these calls is given here.

How the values were obtained:
[1] = test system: Escherichia coli; experiment: Antibacterial activity against Escherichia coli AS19; type: functional, organism-based
[2] = test system: Escherichia coli; experiment: Antibacterial activity against Escherichia coli B; type: functional, organism-based

SMILES	inhibition [1]	inhibition [2]
Cc1nc(F)sc1CCO	inactive	inactive
OCCc1scnc1C(F)(F)F	inactive	inactive
